From patent US6532386B2, “Electrotransort device comprising blades” (Johnson & Johnson Consumer Companies, Inc., priority 1998, dated 2003)

Experiments:
[1] = Transdermal reverse polarity iontophoresis of insulin in pig: blood glucose concentration; type: in vivo
Method: The procedure in Example 3 was repeated, except the stratum corneum of the pig was not disrupted with 400 μm blades and reverse polarity iontophoresis was only conducted for 30 minutes. […] Thus, no insulin was apparently delivered during the iontophoresis process.
The procedure in Example 4 was repeated, except 800 μm blades were pressed against the stratum corneum of a diabetic pig before iontophoresis was performed. The blood glucose in the pig was monitored for 9 hours.
The procedure described in Example 5 was then repeated.
The procedure in Example 5 was repeated except that ethyl cyanoacrylate was applied to the surface of the 800 μm blades before the blades were pressed against the skin of the pig. The blades were held against the skin of the pig for 2 minutes prior to performing iontophoresis to allow the ethyl cyanoacrylate to solidify prior to removal. […] The blood glucose concentration in the pig was monitored for 8 hours. The quantity of insulin delivered was so large that the hyperglycemic pig having an initial blood glucose concentration of 180 mg/dl became seriously hypoglycemic with a blood glucose concentration of 25 mg/dl.

[2] = Excerpt: The stratum corneum was physically disrupted by repeatedly scratching the skin of a pig with 400 μm blades 20 times, 10 scratchings in one direction, 10 more in a direction perpendicular to the previous direction. Two electrodes were constructed with hollow 3.5 cm by 3.5 cm by 0.5 cm polystyrene vessels each having a volume of about 5 cm^3. A 3 cm by 3 cm by 0.5 mm piece of stainless steel was adhered to the inside of each polystyrene vessel. The electrodes were affixed to the skin of the pig with Dow Corning 355 Medical Adhesive available from Dow Corning of Midland, Mich.
An insulin solution available as Humulin-®(500 units/mL) from Eli Lilly and Co. of Indianapolis, Ind., was injected into the vessel with a hyperdermic needle. Iontophoresis was performed with direct current at a current intensity of 4 mA over about 12 cm^2 of skin. The electric polarity was manually reversed every 5 minutes for 2 hours. The blood glucose concentration and insulin serum concentration in the pig were periodically measured before, during, and after iontophoresis.
The skin on a pig was wiped generously with 200 proof ethanol and allowed to dry to induce skin permeation enhancement. The procedure described in Example 5 was then repeated. The blood glucose concentration and insulin serum concentration in the pig were monitored for 6 hours. […]

[3] = Example 5: diabetic pig, 800 μm blades, iontophoresis 30 minutes

insulin
reduction in blood glucose ([1]; Comparative Example 4: stratum corneum not disrupted with blades, reverse polarity iontophoresis 30 minutes): lack of any reduction in blood glucose | blood glucose concentration ([1]; Example 3: pig skin scratched with 400 μm blades, iontophoresis 4 mA over about 12 cm^2, polarity reversed every 5 minutes for 2 hours, from 140 mg/dl): 30 mg/dL | reduction of the blood glucose concentration ([1]; Example 3: pig skin scratched with 400 μm blades, reverse polarity iontophoresis for 2 hours): ~80% | reduction in the blood glucose concentration ([1]; Example 5: diabetic pig, 800 μm blades pressed against stratum corneum, iontophoresis 30 minutes, monitored 9 hours): ~37% | blood glucose level maintained [1, 3]: below 140 mg/dl | time blood glucose level was maintained below 140 mg/dl [1, 3]: over 8 hours | reduction of blood glucose ([1]; Example 6: skin wiped with 200 proof ethanol, 800 μm blades, after 2 hours): ~50% | reduction of blood glucose ([1]; Example 7: skin pre-treated with Nair lotion (calcium thioglycolate), 800 μm blades, iontophoresis 120 minutes, after 3 hours): 30% | blood glucose concentration ([1]; Example 8: hyperglycemic pig, ethyl cyanoacrylate on 800 μm blades, iontophoresis 120 minutes, initial 180 mg/dl): 25 mg/dL | insulin serum rise (insulin serum concentration) ([2]; Example 3: pig skin scratched with 400 μm blades, reverse polarity iontophoresis for 2 hours, from 25): 590 _IU/ml | serum insulin concentration ([2]; Example 6: skin wiped with 200 proof ethanol, 800 μm blades, after one hour): approximately 60 _IU/ml
